Experimental data published in PMC9697135 (International Journal of Molecular Sciences, 2022).
Like-named read-outs stand apart in the source and are kept apart here.

Key:
human nSMase2 = conditions: cited from earlier work; for IC50: nSMase2 inhibition
in vitro [1] = conditions: African green monkey
ZIKV = assay: Antiviral activity, virus yield by plaque assay (ZIKV); assay type: cell-based; conditions: Zika virus, 24 h, read-out: EC50 ZIKV
WNV = assay: Antiviral activity, virus yield by plaque assay (WNV); assay type: cell-based; conditions: West Nile virus, MOI 1 PFU/cell, virus yield at 24 h post-infection
in vitro [2] = conditions: human

COc1cc(O)c(C(=O)O)c(-c2cc(O)c(O)cc2C)c1 [Altenusin]
Ki (human nSMase2; non-competitive inhibitor of human nSMase2): 20 µM

COc1cc(-c2nc(-c3cccs3)c(-c3ccccc3)[nH]2)cc(OC)c1O [DPTIP]
CC50 (in vitro [1]): 54.8 µM | EC50 (ZIKV; HeLa): 1.84 µM | EC50 (ZIKV; Vero): 1.56 µM | EC50 (WNV; HeLa cells): 2.81 µM | EC50 (WNV; Vero cells): 0.26 µM | CC50 (in vitro [2]): 15.1 µM

COc1cc(-c2nc(-c3cccs3)c(-c3ccccc3)[nH]2)cc(OC)c1OC [compound 8]
nSMase2 inhibitory activity (in words) (human nSMase2; SAR of DPTIP derivatives): completely inactive | IC50 (human nSMase2; SAR of DPTIP derivatives): > 100 µM

COc1cc(-c2nc(-c3cccs3)c(-c3ccccc3)n2C)cc(OC)c1O [compound 9]
IC50 (human nSMase2; SAR of DPTIP derivatives): 40 µM

Oc1c(OC2CCCC2)cc(-c2nc(-c3cccs3)c(-c3ccccc3)[nH]2)cc1OC1CCCC1 [compound 10]
IC50 (human nSMase2; SAR of DPTIP derivatives): 0.12 µM

CC(C)(C)Oc1cc(-c2nc(-c3cccs3)c(-c3ccccc3)[nH]2)cc(OC(C)(C)C)c1O [compound 11]
IC50 (human nSMase2; SAR of DPTIP derivatives): 0.52 µM
